The subject of one series is Strep pyogenes 203. In words: in vivo oral protection against acute experimental infection in mice. As to conditions: Mus musculus, read-out: PD50. The source says: (§1) In determining such activity, acute experimental infections are produced in mice by the intraperitoneal inoculation of the mice with a standardized culture of the test organism suspended in 5 percent hog gastric mucin. Infection severity is standardized so that the mice receive at least one LD100 dose of the organism (LD100 : the minimum inoculum of organism required to consistently kill 100 percent of the infected, nontreated control mice). The test compound is orally administered at various dosage levels to groups of infected mice at 1/2, 4 and 24 hours post infection. At the end of the test, the activity of the mixture is assessed by counting the number of survivors among treated animals at a given dose. Activity is expressed as the percentage of animals which survive at a given dose, or calculated as a PD50 (dose which protects 50% of the animals from infection).

In a further series the test system is Staph aureus 005. The description is as above. The note with it: read-out: PD50.
Source text: as §1

Series [1] can be described thus: absorption via the oral route. In kind it is in vivo.
The next series relates to Strep. faec. 006. The series can be described thus: in vitro MIC, tube serial dilution, 24 hour incubation. In kind it is cell-based. On the procedure: (§2) Table I summarizes the results of in vitro MIC (minimum inhibitory concentration) tests. For this standard test, each organism is inoculated into a series of tubes containing nutrient medium and serially diluted concentrations of the antibiotic. The MIC is the lowest concentration of antibiotic which prevents growth of the microorganism over the 24 hour incubation test period.

The test system of another series is E. Coli 470. The series is described as above. In kind it is cell-based. The note with it: Escherichia coli. On the procedure:
as §2

The next series relates to Strep. pneum. 012. The description is as above. In kind it is cell-based. The method, then: as §2
The test system of a further series is Staph. epid. 111. The description is as above. In kind it is cell-based. On the procedure: as §2
Another series has as its system Staph. aureus 052. The series is described as above. In kind it is cell-based. On the procedure: as §2
The next series deals with Hem. influ. 012. The description is as above. In kind it is cell-based. The method, then: as §2
Another series deals with Hem. influ. 036. The series is described as above. In kind it is cell-based. On the procedure:
as §2

The subject of another series is Strep. pyog. 203. The description is as above. In kind it is cell-based. On the procedure: as §2
The next series relates to Staph. aureus 400. The series is described as above. In kind it is cell-based. The method, then:
as §2

The subject of another series is Staph. aureus 005. Described as above. In kind it is cell-based. On the procedure: as §2
The subject of a further series is Neiss. Sicca 000. The series is described as above. In kind it is cell-based. The method, then:
as §2

In another series the test system is Past. mult. 001. The description is as above. In kind it is cell-based. The method, then:
as §2

In a further series the test system is sensitive bacteria. In words: in vivo activity against infections by sensitive bacteria (summary statement). The note with it: mice, oral.
Source text: as §1

The next series is described as follows: stability at acid pH. In kind it is physicochemical. As to conditions: acid pH (2.5 to 5.0); unlike erythromycin A.
Series [2] concerns Gram-positive and Gram-negative bacteria. In words: in vitro antibacterial activity (summary statement). In kind it is cell-based. The note with it: medium spectrum of Gram-positive and Gram-negative bacteria. On the procedure: as §2
Setting [3] is: mice, Strep pyogenes 203, oral dosage 1/2, 4 and 24 hours post infection.
Setting [4] is: Staphylococcus aureus, mice, Staph aureus 005, oral dosage 1/2, 4 and 24 hours post infection.
The mark [5] stands for this setting: Strep. faec. 006, read-out: MIC.
[6] abbreviates: Strep. pneum. 012, read-out: MIC.
[7] abbreviates: Staph. epid. 111, read-out: MIC.
The mark [8] stands for this setting: Staphylococcus aureus, 24 h, Staph. aureus 052, read-out: MIC.
The mark [9] stands for this setting: Strep. pyog. 203, read-out: MIC.
[10] abbreviates: Staphylococcus aureus, 400, 24 h.
[11] abbreviates: Staphylococcus aureus, 24 h, Staph. aureus 005, read-out: MIC.
The mark [12] stands for this setting: Neiss. Sicca 000, read-out: MIC.
Where [13] appears, read: Staphylococcus aureus, 24 h, Staph. aureus 400, read-out: MIC.

Experimental findings from patent US4496546A, “Erythromycin D and esters thereof” (Pfizer Inc., priority 1982, dated 1985) are described below.

One may read the MIC as the least concentration at which growth counts as inhibited.

SMILES strings stand for the structures. In brackets after ≈: the same amount, converted by molar mass. Like-named read-outs stand apart in the source and are kept apart here.

`CC[C@H]1OC(=O)[C@H](C)[C@@H](O[C@H]2C[C@@](C)(OC)[C@@H](O)[C@H](C)O2)[C@H](C)[C@@H](O[C@@H]2O[C@H](C)C[C@H](N(C)C)[C@H]2O)[C@](C)(O)C[C@@H](C)C(=O)[C@H](C)[C@@H](O)[C@]1(C)O` [Erythromycin A, reference compound]: the ED50 in the series with Strep pyogenes 203 (setting [3]) was found to be 25 mg/kg; in the series with Staph aureus 005 (setting [4]), 64 mg/kg.

Consider `CCC1OC(=O)C(C)C(OC2CC(C)(OC(C)=O)C(OC(C)=O)C(C)O2)C(C)C(OC2OC(C)CC(N(C)C)C2O)C(C)(O)CC(C)C(=O)C(C)C(O)C1C` (centres unmarked) [3",4"-Di-O-acetylerythromycin D], for which the “absorption via the oral route” value in series [1] is listed as “high degree of absorption”. Further, the MIC in the series with Strep. faec. 006 (setting [5]) was 1.56 µg/mL (≈ 1.98 µM); in the series on E. Coli 470 (E. Coli 470, read-out: MIC) it was 12.5 µg/mL (≈ 15.9 µM); with Strep. pneum. 012 (setting [6]), 0.1 µg/mL (≈ 0.127 µM); in the series with Staph. epid. 111 (setting [7]) it was 0.39 µg/mL (≈ 0.495 µM); with Staph. aureus 052 (setting [8]) it was 3.12 µg/mL (≈ 3.96 µM); in the series with Hem. influ. 012 (Hem. influ. 012, read-out: MIC), more than 50 µg/mL. Moreover, the MIC was more than 50 µg/mL in the series on Hem. influ. 036 (Hem. influ. 036, read-out: MIC); 0.1 µg/mL (≈ 0.127 µM) in the series with Strep. pyog. 203 (setting [9]); 50 µg/mL (≈ 63.5 µM) in the series on Staph. aureus 400 (setting [10]); 1.56 µg/mL (≈ 1.98 µM) with Staph. aureus 005 (setting [11]); 25 µg/mL (≈ 31.7 µM) in the series on Neiss. Sicca 000 (setting [12]). Also, the ED50 with Strep pyogenes 203 (setting [3]) is 15 mg/kg; in the series with Staph aureus 005 (setting [4]), 27 mg/kg.

`CCC(=O)OC1C(C)OC(OC2C(C)C(=O)OC(CC)C(C)C(O)C(C)C(=O)C(C)CC(C)(O)C(OC3OC(C)CC(N(C)C)C3O)C2C)CC1(C)OC(C)=O` (centres unmarked) [3"-O-Acetyl-4"-O-propionylerythromycin D]: the MIC in the series with Strep. faec. 006 (setting [5]) was determined as 0.78 µg/mL (≈ 0.973 µM); in the series with Past. mult. 001 (Past. mult. 001, read-out: MIC) it was 12.5 µg/mL (≈ 15.6 µM); in the series with E. Coli 470 (E. Coli 470, read-out: MIC), 12.5 µg/mL (≈ 15.6 µM); in the series with Strep. pneum. 012 (setting [6]), 0.05 µg/mL (≈ 0.0623 µM); in the series on Staph. epid. 111 (setting [7]) it was 0.2 µg/mL (≈ 0.249 µM); in the series on Staph. aureus 052 (setting [8]), 0.78 µg/mL (≈ 0.973 µM). Also, the MIC in the series on Hem. influ. 012 is 50 µg/mL (≈ 62.3 µM); in the series on Hem. influ. 036 (Hem. influ. 036, read-out: MIC) it was more than 50 µg/mL; in the series with Strep. pyog. 203 (setting [9]), 0.05 µg/mL (≈ 0.0623 µM); in the series with Staph. aureus 400 (setting [13]), 12.5 µg/mL (≈ 15.6 µM); in the series with Staph. aureus 005 (setting [11]), 0.39 µg/mL (≈ 0.486 µM); in the series with Neiss. Sicca 000 (setting [12]), 12.5 µg/mL (≈ 15.6 µM).

In the case of `CCC1OC(=O)C(C)C(OC2CC(C)(O)C(OC(C)=O)C(C)O2)C(C)C(OC2OC(C)CC(N(C)C)C2O)C(C)(O)CC(C)C(=O)C(C)C(O)C1C` (centres unmarked) [4"-O-Acetylerythromycin D], the MIC with Strep. faec. 006 (setting [5]) was determined as 3.12 µg/mL (≈ 4.18 µM); in the series on Past. mult. 001 (Past. mult. 001, read-out: MIC), 25 µg/mL (≈ 33.5 µM); against E. Coli 470 it was 6.25 µg/mL (≈ 8.38 µM); in the series on Strep. pneum. 012 (setting [6]), 0.39 µg/mL (≈ 0.523 µM); with Staph. epid. 111 (setting [7]), 0.78 µg/mL (≈ 1.05 µM); in the series on Staph. aureus 052 (setting [8]), 6.25 µg/mL (≈ 8.38 µM). In addition, the MIC was 50 µg/mL (≈ 67 µM) with Hem. influ. 012 (Hem. influ. 012, read-out: MIC); more than 50 µg/mL with Hem. influ. 036 (Hem. influ. 036, read-out: MIC); 0.2 µg/mL (≈ 0.268 µM) with Strep. pyog. 203 (setting [9]); more than 50 µg/mL with Staph. aureus 400 (setting [13]); 3.12 µg/mL (≈ 4.18 µM) in the series on Staph. aureus 005 (setting [11]); 25 µg/mL (≈ 33.5 µM) in the series with Neiss. Sicca 000 (setting [12]). Besides, the values for the ED50 in the series on Strep pyogenes 203 (setting [3]) and in the series with Staph aureus 005 (setting [4]) were 40 mg/kg and 139 mg/kg, respectively.

In the case of `CCC1OC(=O)C(C)C(OC2CC(C)(O)C(O)C(C)O2)C(C)C(OC2OC(C)CC(N(C)C)C2O)C(C)(O)CC(C)C(=O)C(C)C(O)C1C` (centres unmarked) [Erythromycin D], the MIC in the series on Strep. faec. 006 worked out at 0.39 µg/mL (≈ 0.554 µM); in the series on Past. mult. 001, 6.25 µg/mL (≈ 8.88 µM); with E. Coli 470, 3.12 µg/mL (≈ 4.43 µM); against Strep. pneum. 012 it was 0.025 µg/mL (≈ 0.0355 µM); with Staph. epid. 111 it was 0.2 µg/mL (≈ 0.284 µM); in the series with Staph. aureus 052 (Staphylococcus aureus, 052, 24 h), 0.39 µg/mL (≈ 0.554 µM). The minimum inhibitory concentration (MIC) against Hem. influ. 012 came out at 25 µg/mL (≈ 35.5 µM); in the series on Hem. influ. 036, 50 µg/mL (≈ 71 µM); against Strep. pyog. 203 it was 0.025 µg/mL (≈ 0.0355 µM); against Staph. aureus 400 (setting [10]), 6.25 µg/mL (≈ 8.88 µM); in the series on Staph. aureus 005 (Staphylococcus aureus, 005, 24 h) it was 0.39 µg/mL (≈ 0.554 µM); against Neiss. Sicca 000, 6.25 µg/mL (≈ 8.88 µM). Moreover, in the series with sensitive bacteria, the in vivo activity entry is given as “exhibit in vivo activity”. Further, the “stability at acid pH” value in “stability at acid pH” was “fairly stable”. The ED50 with Strep pyogenes 203 (po) turned out to be 15 mg/kg; with Staph aureus 005 (Staphylococcus aureus, 005, po), 57 mg/kg. Moreover, in series [2], the in vitro activity entry was “exhibit in vitro activity”.
